Laboratory results: US11602534B2, “Pyrimidine derivative kinase inhibitors” (HEFEI INSTITUTES OF PHYSICAL SCIENCE, CHINESE ACADEMY OF …, priority 2017, dated 2023)

Experiments:
FLT3-ITD-BaF3 = test: Proliferation of FLT3-ITD-BaF3 cells, CCK8 cell viability assay; assay type: cell-based; conditions: Mus musculus, 72 hours, stably expressing FLT3/ITD
Text: (§1) In this example the following cells were used: […] (purchased from ATCC), mouse P210-BaF3 (stably expressing BCR-ABL mutant activated kinase), mouse P210/T315I-BaF3 (stably expressing BCR-ABL/T315I mutant activated kinase), mouse FLT3-ITD-BaF3 (stably expressing FLT3/ITD mutant activated kinase), mouse TEL-FLT3-BaF3 (stably expressing FLT3 kinase), mouse TEL-cKIT-BaF3 (stably expressing cKIT kinase), mouse BaF3-tel/T670I-cKit (stably expressing cKIT/T670I mutant activated kinase), mouse Tel-VEGFR2-BaF3 (stably expressing VEGFR2 kinase), mouse Tel-PDGFRα-BaF3 (stably expressing PDGFRα kinase), mouse Tel-PDGFRβ-BaF3 (stably expressing PDGFRβ kinase), mouse Tel-RET-BaF3 (stably expressing RET kinase). The above cell lines were all constructed by our laboratory according to the following method: the kinase region sequences of human P210, P210/T315I, FLT3/ITD, FLT3, cKIT, cKIT/T670I, VEGFR2, PDGFRα, PDGFRβ, RET were respectively amplified by PCR, and inserted into MSCV-Puro vectors having N-terminal TEL or TPR fragments (Clontech). The vectors were stably transfected into mouse BaF3 cells by means of retrovirus, and the growth factor IL-3 were removed, eventually obtaining cell lines that depend on transferred protein P210, P210/T315I, FLT3/ITD, FLT3, cKIT, cKIT/T670I, VEGFR2, PDGFRα, PDGFRβ, or RET.
(§2) GI50 (unit: μM) was calculated by quantifying the number of living cells based on quantitative measurement of reductive dehydrogenase in living cells with CCK8 cell viability assay kit (Bestbio, China).

BaF3 = test: Proliferation of BaF3 cells, CCK8 cell viability assay; assay type: cell-based; conditions: Mus musculus, 72 hours
Text: as §1, §2

Tel-cKit/T670I-BaF3 = test: Proliferation of Tel-cKit/T670I-BaF3 cells, CCK8 cell viability assay; assay type: cell-based; conditions: Mus musculus, 72 hours, stably expressing cKIT/T670I
Text: as §1, §2

Tel-FLT3-BaF3 = test: Proliferation of Tel-FLT3-BaF3 cells, CCK8 cell viability assay; assay type: cell-based; conditions: Mus musculus, 72 hours, stably expressing FLT3 kinase
Text: as §1, §2

Tel-cKit-BaF3 = test: Proliferation of Tel-cKit-BaF3 cells, CCK8 cell viability assay; assay type: cell-based, mouse; conditions: Mus musculus; 72 hours, CCK8; stably expressing cKIT kinase
Text: as §1, §2

P210/T315I-BaF3 = test: Proliferation of P210/T315I-BaF3 cells, CCK8 cell viability assay; assay type: cell-based; conditions: Mus musculus, 72 hours, stably expressing BCR-ABL/T315I
Text: as §1, §2

TEL-PDGFRβ-BaF3 = test: Proliferation of TEL-PDGFRβ-BaF3 cells, CCK8 cell viability assay; assay type: cell-based; conditions: Mus musculus, 72 hours, stably expressing PDGFRβ kinase
Text: as §1, §2

P210-BaF3 = test: Proliferation of P210-BaF3 cells, CCK8 cell viability assay; assay type: cell-based; conditions: Mus musculus, 72 hours, stably expressing BCR-ABL mutant activated kinase
Text: as §1, §2

TEL-PDGFRα-BaF3 = test: Proliferation of TEL-PDGFRα-BaF3 cells, CCK8 cell viability assay; assay type: cell-based; conditions: Mus musculus, 72 hours, stably expressing PDGFRα kinase
Text: as §1, §2

TEL-VEGFR2-BaF3 = test: Proliferation of TEL-VEGFR2-BaF3 cells, CCK8 cell viability assay; assay type: cell-based; conditions: Mus musculus, 72 hours, stably expressing VEGFR2 kinase
Text: as §1, §2

GI50 (FLT3-ITD-BaF3) [nM]	GI50 (BaF3) [nM]	GI50 (Tel-cKit/T670I-BaF3) [nM]	GI50 (Tel-FLT3-BaF3) [nM]	GI50 (Tel-cKit-BaF3) [nM]	GI50 (P210/T315I-BaF3) [nM]	GI50 (TEL-PDGFRβ-BaF3) [nM]	GI50 (P210-BaF3) [nM]	GI50 (TEL-PDGFRα-BaF3) [nM]	GI50 (TEL-VEGFR2-BaF3) [nM]	Compound
126	> 10000	7940	513	9840	> 10000	112	> 10000	41	–	CCCC(=O)Nc1cc(Oc2ccc(NC(=O)Cc3ccccc3C(F)(F)F)cc2)ncn1 [Example 167, N-(6-{4-[2-(2-trifluoromethyl-phenyl)-acetylamino]-phenoxy}-pyrimidin-4-yl)-butyramide]
1220	> 10000	> 10000	3160	> 10000	> 10000	925	> 10000	137	–	CC(=O)Nc1cc(Oc2ccc(NC(=O)C(C)c3ccc(C)cc3)cc2)ncn1 (centres unmarked) [Example 170, N-[4-(6-acetylamino-pyrimidin-4-yloxy)-phenyl]-2-(4-methyl-phenyl)-propanamide]
42	> 10000	4230	99	2690	> 10000	33	> 10000	6	–	CC(=O)Nc1cc(Oc2ccc(NC(=O)Cc3ccc(F)c(F)c3)cc2)ncn1 [Example 168, N-[4-(6-acetylamino-pyrimidin-4-yloxy)-phenyl]-2-(3,4-difluoro-phenyl)-acetamide]
444	> 10000	> 10000	1410	> 10000	> 10000	938	> 10000	84	–	CC(=O)Nc1cc(Nc2ccc(NC(=O)Cc3ccccc3C(F)(F)F)cc2)ncn1 [Example 164, N-[4-(6-acetylamino-pyrimidin-4-ylamino)-phenyl]-2-(2-trifluoromethyl-phenyl)-acetamide]
10	> 10000	81	4	301	–	4	–	1	13	CC(=O)Nc1cc(Oc2ccc(CC(=O)Nc3cccc(C(F)(F)F)c3)cc2)ncn1 [Example 33, 2-[4-(6-acetylamino-pyrimidin-4-yloxy)-phenyl]-N-(3-trifluoromethyl-phenyl)-acetamide]
180	> 10000	> 10000	347	7880	–	134	> 10000	57	4260	CC(=O)Nc1cc(Oc2ccc(CC(=O)N(C)c3ccc(Br)cc3)cc2)ncn1 [Example 39, 2-[4-(6-acetylamino-pyrimidin-4-yloxy)-phenyl]-N-(4-bromo-phenyl)-N-methyl-acetamide]
158	> 10000	> 10000	744	6930	–	156	–	102	2830	CC(=O)Nc1cc(Oc2ccc(NC(=O)Cc3cc(Cl)ccc3C(F)(F)F)cc2)ncn1 [Example 2, N-[4-(6-acetylamino-pyrimidin-4-yloxy)-phenyl]-2-(5-chloro-2-trifluoromethyl-phenyl)-acetamide]
4	> 10000	36	17	589	–	2	–	< 1	–	CC(=O)Nc1cc(Oc2ccc(CC(=O)Nc3ccc(C(F)(F)F)cc3)cc2)ncn1 [Example 36, 2-[4-(6-acetylamino-pyrimidin-4-yloxy)-phenyl]-N-(4-trifluoromethyl-phenyl)-acetamide]
74	> 10000	> 10000	228	7010	> 10000	116	> 10000	24	–	CC(=O)Nc1cc(Oc2ccc(NC(=O)Cc3ccccc3C)cc2)ncn1 [Example 161, N-[4-(6-acetylamino-pyrimidin-4-yloxy)-phenyl]-2-(2-methyl-phenyl)-acetamide]
162	> 10000	4030	2270	> 10000	–	4	> 10000	5	–	CC(=O)Nc1cc(Oc2ccc(CC(=O)Nc3ccccc3)cc2)ncn1 [Example 37, 2-[4-(6-acetylamino-pyrimidin-4-yloxy)-phenyl]-N-phenyl-acetamide]
67	> 10000	6600	925	> 10000	–	406	> 10000	203	–	CC(=O)Nc1cc(Oc2ccc(CC(=O)Nc3cccc(Cl)c3C(F)(F)F)cc2)ncn1 [Example 35, 2-[4-(6-acetylamino-pyrimidin-4-yloxy)-phenyl]-N-(3-chloro-2-trifluoromethyl-phenyl)-acetamide]
11	> 10000	3270	25	924	9070	14	> 10000	5	–	CC(=O)Nc1cc(Oc2ccc(NC(=O)Cc3cccc4ccccc34)cc2)ncn1 [Example 163, N-[4-(6-acetylamino-pyrimidin-4-yloxy)-phenyl]-2-naphth-1-yl-acetamide]
21	> 10000	4610	52	462	> 10000	12	> 10000	1	–	CC(=O)Nc1cc(Nc2ccc(NC(=O)Cc3cccc(C(F)(F)F)c3)cc2)ncn1 [Example 165, N-[4-(6-acetylamino-pyrimidin-4-ylamino)-phenyl]-2-(3-trifluoromethyl-phenyl)-acetamide]
300	8920	990	460	1730	–	136	–	21	350	Cc1ccc(NC(=O)Nc2ccc(Oc3cc(N4CCN[C@H](C)C4)ncn3)cc2)cc1C(F)(F)F [Example 106, (R)-1-(4-methyl-3-(trifluoromethyl)phenyl)-3-(4-((6-(3-methylpiperazin-1-yl)pyrimidin-4-yl)oxy)phenyl)urea]
19	> 10000	915	113	313	> 10000	6	> 10000	4	–	CC(=O)Nc1cc(Oc2ccc(NC(=O)Cc3ccc4ccccc4c3)cc2)ncn1 [Example 162, N-[4-(6-acetylamino-pyrimidin-4-yloxy)-phenyl]-2-naphth-2-yl-acetamide]
24	> 10000	> 10000	105	1700	> 10000	35	> 10000	5	–	CC(=O)Nc1cc(Oc2ccc(NC(=O)Cc3cccc(Cl)c3)cc2)ncn1 [Example 169, N-[4-(6-acetylamino-pyrimidin-4-yloxy)-phenyl]-2-(3-chloro-phenyl)-acetamide]
58	7210	8850	169	354	8490	115	–	26	398	Cc1ccc(NC(=O)Nc2ccc(Oc3cc(N(C)CCO)ncn3)cc2)cc1C(F)(F)F [Example 87, 1-(4-{6-[(2-hydroxy-ethyl)-methyl-amino]-pyrimidin-4-yloxy}-phenyl)-3-(4-methyl-3-trifluoromethyl-phenyl)-urea]
213	> 10000	8310	632	> 10000	–	466	> 10000	35	2850	CC(=O)Nc1cc(Oc2ccc(CC(=O)Nc3ccc(C)cc3C(F)(F)F)cc2)ncn1 [Example 38, 2-[4-(6-acetylamino-pyrimidin-4-yloxy)-phenyl]-N-(4-methyl-2-trifluoromethyl-phenyl)-acetamide]
